Measurements reported in US20240382484A1, “COMPOSITION FOR TREATING, PREVENTING, OR AMELIORATING MELANOMA AND METHOD THEREOF” (Thomas Jefferson University, priority 2021, published 2024).

Test system: SK-MEL-30 xenografts
Test: SK-MEL-30 xenograft model in Nu/J mice
Assay type: in vivo, mouse
Settings: trametinib chow and/or GSK2334470 100 mg/kg intraperitoneally every 3 days
Description: FIG. 4A-4B, In Nu/J mice, SK-MEL-30 tumor growth (FIG. 4A) represented as the change in volume (mm^3) over time and Kaplan-Meier survival curves (FIG. 4B) were shown from the start of treatment as indicated. Ctrl: control chow+mock injection (n=7), Tram: trametinib chow+mock injection (n=7), G4470: control chow+GSK2334470 injection (n=5), Comb: trametinib chow+GSK2334470 injection (n=7). Mice were injected and tumor volume was monitored every 3 days. Data are represented as the mean±SEM. The dotted line at 1000 mm^3 marks the experimental endpoint. p values were calculated by GraphPad Prism 9.0 with Log-rank (Mantel-Cox) test. n.s., not significant. […]
FIGS. 14A-14B: Sex disparities in SK-MEL-30 xenografts, in accordance with some embodiments. […] Mice were injected and tumor volume was monitored every 3 days. […] The dotted line at 1000 mm^3 marks the experimental endpoint. p values were calculated by GraphPad Prism 9.0 with Log-rank (Mantel-Cox) test. n.s., not significant.
Animal experiments were performed at Thomas Jefferson University in a facility accredited by the Association for the Assessment and Accreditation of Laboratory Animal Care and were approved by the Institutional Animal Care and Use Committee (protocol #1052). […] Mouse weights were monitored once a week or three times per week during drug treatment. […]

Q: With CC(=O)Nc1cccc(-n2c(=O)n(C3CC3)c(=O)c3c(Nc4ccc(I)cc4F)n(C)c(=O)c(C)c32)c1 [trametinib, N-(3-(3-cyclopropyl-5-((2-fluoro-4-iodophenyl)amino)-6,8-dimethyl-2,4,7-trioxo-3,4,6,7-tetrahydropyrido[4,3-d]pyrimidin-1(2H)-yl)phenyl)acetamide] as the compound, how does the tumor growth read?
A: suppressed tumor growth modestly
